# Test results taken from US20220323406A1, “METHODS AND COMPOSITIONS FOR DIFFERENTIATING STEM CELLS” (Massachusetts Institute of Technology, priority 2019, published 2022).
# Tests used:
# ENR+CD organoids = experiment: Primary screen: ATP (CellTiter-Glo 3D, CTG) cell number/viability, 2.5-D 384-well ENR+CD organoids; conditions: primary screen; for Z.CTG: standard z score;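 for all read-outs here: compounds given at plating and again on day 3 over a 6-day differentiation from ENR+CV stem-cell-enriched precursors, ATP measured on day 6, plate median as control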
# [1] = system: ENR+CD organoids (ISC to Paneth cell differentiation); experiment: Primary screen: CCh-stimulated lysozyme secretion LYZ.S, 2.5-D 384-well ENR+CD organoid differentiation; format: cell-based, mouse; conditions: primary screen
# Source text: (§1) High-throughput screening.
# [2] = system: ENR+CD organoids (ISC to Paneth cell differentiation); experiment: Primary screen: basal (non-stimulated) lysozyme secretion LYZ.NS, 2.5-D 384-well ENR+CD organoid differentiation; format: cell-based, mouse; conditions: primary screen; for Z.LYZ.NS: standard z score
# Source text: as §1
# [3] = dose 0.08 uM, FC relative to plate median
# [4] = dose 0.40 uM, FC relative to plate median
# [5] = dose 2.00 uM, FC relative to plate median
# [6] = dose 10.00 uM, FC relative to plate median
structure (smiles),measurement,setting,value
COc1cc2c(cc1OC)[C@@H]1Cc3ccc(OC)c(OC)c3CN1CC2 [Rotundine],Dose.FC.CTG,ENR+CD organoids; [3],0.359 log2 fold change
same,Dose.FC.CTG,ENR+CD organoids; [4],0.343 log2 fold change
same,Dose.FC.CTG,ENR+CD organoids; [5],0.190 log2 fold change
same,Dose.FC.CTG,ENR+CD organoids; [6],0.227 log2 fold change
same,Dose.FC.LYZ.S,[1]; [3],0.151 log2 fold change
same,Dose.FC.LYZ.S,[1]; [4],0.049 log2 fold change
same,Dose.FC.LYZ.S,[1]; [5],0.080 log2 fold change
same,Dose.FC.LYZ.S,[1]; [6],0.095 log2 fold change
same,Dose.FC.LYZ.NS,[2]; [3],0.124 log2 fold change
same,Z.LYZ.NS,[2]; dose 0.08 uM,1.082
same,Dose.FC.LYZ.NS,[2]; [4],0.032 log2 fold change
same,Z.LYZ.NS,[2]; dose 0.40 uM,0.282
same,Dose.FC.LYZ.NS,[2]; [5],0.072 log2 fold change
same,Z.LYZ.NS,[2]; dose 2.00 uM,0.623
same,Dose.FC.LYZ.NS,[2]; [6],0.126 log2 fold change
same,Z.LYZ.NS,[2]; dose 10.00 uM,1.100
O=C(/C=C/c1ccccc1)NC(NC(=S)Nc1ccc(Cl)cc1)C(Cl)(Cl)Cl (stereo not drawn) [Sal003],Dose.FC.CTG,ENR+CD organoids; [3],0.191 log2 fold change
same,Z.CTG,ENR+CD organoids; dose 0.08 uM,0.456
same,Dose.FC.CTG,ENR+CD organoids; [4],0.155 log2 fold change
same,Z.CTG,ENR+CD organoids; dose 0.40 uM,0.370
same,Dose.FC.CTG,ENR+CD organoids; [5],0.196 log2 fold change
same,Z.CTG,ENR+CD organoids; dose 2.00 uM,0.468
same,Dose.FC.CTG,ENR+CD organoids; [6],−0.829 log2 fold change
same,Z.CTG,ENR+CD organoids; dose 10.00 uM,−1.981
same,Dose.FC.LYZ.S,[1]; [3],0.092 log2 fold change
same,Dose.FC.LYZ.S,[1]; [4],0.067 log2 fold change
same,Dose.FC.LYZ.S,[1]; [5],0.040 log2 fold change
same,Dose.FC.LYZ.S,[1]; [6],−0.408 log2 fold change
same,Dose.FC.LYZ.NS,[2]; [3],0.116 log2 fold change
same,Z.LYZ.NS,[2]; dose 0.08 uM,1.013
same,Dose.FC.LYZ.NS,[2]; [4],0.183 log2 fold change
same,Z.LYZ.NS,[2]; dose 0.40 uM,1.595
same,Dose.FC.LYZ.NS,[2]; [5],0.077 log2 fold change
same,Z.LYZ.NS,[2]; dose 2.00 uM,0.670
same,Dose.FC.LYZ.NS,[2]; [6],−0.246 log2 fold change
same,Z.LYZ.NS,[2]; dose 10.00 uM,−2.142
NC(=O)c1ccc(I)c([N+](=O)[O-])c1 [Iniparib (BSI-201)],Dose.FC.CTG (log2 fold change),ENR+CD organoids; dose 0.40 uM,0.181
same,Z.CTG (standard z score),ENR+CD organoids; dose 0.40 uM,0.432
same,Dose.FC.CTG (log2 fold change),ENR+CD organoids; dose 2.00 uM,0.157
same,Z.CTG (standard z score),ENR+CD organoids; dose 2.00 uM,0.375
same,Dose.FC.CTG (log2 fold change),ENR+CD organoids; dose 10.00 uM,0.244
same,Z.CTG (standard z score),ENR+CD organoids; dose 10.00 uM,0.583
same,Dose.FC.LYZ.S (log2 fold change),[1]; dose 0.40 uM,0.035
same,Dose.FC.LYZ.S (log2 fold change),[1]; dose 2.00 uM,−0.001
same,Dose.FC.LYZ.S (log2 fold change),[1]; dose 10.00 uM,−0.010
same,Dose.FC.LYZ.NS (log2 fold change),[2]; dose 0.40 uM,0.000
same,Z.LYZ.NS (standard z score),[2]; dose 0.40 uM,0.003
same,Dose.FC.LYZ.NS (log2 fold change),[2]; dose 2.00 uM,0.016
same,Z.LYZ.NS (standard z score),[2]; dose 2.00 uM,0.138
same,Dose.FC.LYZ.NS (log2 fold change),[2]; dose 10.00 uM,−0.016
same,Z.LYZ.NS (standard z score),[2]; dose 10.00 uM,−0.139
NC(=O)c1cccc(-c2cc(Nc3ccc(OC(F)(F)F)cc3)ncn2)c1 [GNF-2],Dose.FC.CTG (log2 fold change),ENR+CD organoids; dose 0.08 uM,0.157
same,Z.CTG (standard z score),ENR+CD organoids; dose 0.08 uM,0.376
same,Dose.FC.CTG (log2 fold change),ENR+CD organoids; dose 0.40 uM,0.090
same,Z.CTG (standard z score),ENR+CD organoids; dose 0.40 uM,0.214
same,Dose.FC.CTG (log2 fold change),ENR+CD organoids; dose 2.00 uM,0.074
same,Z.CTG (standard z score),ENR+CD organoids; dose 2.00 uM,0.176
same,Dose.FC.CTG (log2 fold change),ENR+CD organoids; dose 10.00 uM,0.100
same,Z.CTG (standard z score),ENR+CD organoids; dose 10.00 uM,0.240
same,Dose.FC.LYZ.S (log2 fold change),[1]; dose 0.08 uM,0.121
same,Dose.FC.LYZ.S (log2 fold change),[1]; dose 0.40 uM,0.001
same,Dose.FC.LYZ.S (log2 fold change),[1]; dose 2.00 uM,0.046
same,Dose.FC.LYZ.S (log2 fold change),[1]; dose 10.00 uM,−0.015
same,Dose.FC.LYZ.NS (log2 fold change),[2]; dose 0.08 uM,0.159
same,Z.LYZ.NS (standard z score),[2]; dose 0.08 uM,1.386
same,Dose.FC.LYZ.NS (log2 fold change),[2]; dose 0.40 uM,−0.024
same,Z.LYZ.NS (standard z score),[2]; dose 0.40 uM,−0.206
same,Dose.FC.LYZ.NS (log2 fold change),[2]; dose 2.00 uM,0.012
same,Z.LYZ.NS (standard z score),[2]; dose 2.00 uM,0.102
same,Dose.FC.LYZ.NS (log2 fold change),[2]; dose 10.00 uM,−0.033
same,Z.LYZ.NS (standard z score),[2]; dose 10.00 uM,−0.286
CC(C)OC(=O)C1=CN(C(=O)c2ccc(F)c(F)c2)CC(C)(C)c2c1[nH]c1ccccc21 [XL335],Dose.FC.CTG,ENR+CD organoids; dose 0.08 uM,0.124 log2 fold change
same,Dose.FC.CTG,ENR+CD organoids; dose 0.40 uM,−0.258 log2 fold change
same,Dose.FC.CTG,ENR+CD organoids; dose 2.00 uM,−0.259 log2 fold change
same,Dose.FC.CTG,ENR+CD organoids; dose 10.00 uM,−0.156 log2 fold change
same,Dose.FC.LYZ.S,[1]; dose 0.08 uM,0.093 log2 fold change
same,Dose.FC.LYZ.S,[1]; dose 0.40 uM,−0.109 log2 fold change
same,Dose.FC.LYZ.S,[1]; dose 2.00 uM,0.045 log2 fold change
same,Dose.FC.LYZ.S,[1]; dose 10.00 uM,−0.180 log2 fold change
same,Dose.FC.LYZ.NS,[2]; dose 0.08 uM,0.175 log2 fold change
same,Z.LYZ.NS (standard z score),[2]; dose 0.08 uM,1.523
same,Dose.FC.LYZ.NS,[2]; dose 0.40 uM,−0.082 log2 fold change
same,Z.LYZ.NS (standard z score),[2]; dose 0.40 uM,−0.711
same,Dose.FC.LYZ.NS,[2]; dose 2.00 uM,−0.072 log2 fold change
same,Z.LYZ.NS (standard z score),[2]; dose 2.00 uM,−0.625
same,Dose.FC.LYZ.NS,[2]; dose 10.00 uM,−0.135 log2 fold change
same,Z.LYZ.NS (standard z score),[2]; dose 10.00 uM,−1.176
